Consider 25 molecules from US20140255392A1 (BAYER INTELLECTUAL PROPERTY GMBH, priority 2011, published 2014).

In this assay the target is T1, human kinase Mps-1 (Homo sapiens, UniProt P33981).
T1 construct: N-terminally GST-tagged human full length recombinant Mps-1 kinase; GST (N); purchased Invitrogen, Karslruhe, Germany PV4071
T1 sequence (P33981 1-857): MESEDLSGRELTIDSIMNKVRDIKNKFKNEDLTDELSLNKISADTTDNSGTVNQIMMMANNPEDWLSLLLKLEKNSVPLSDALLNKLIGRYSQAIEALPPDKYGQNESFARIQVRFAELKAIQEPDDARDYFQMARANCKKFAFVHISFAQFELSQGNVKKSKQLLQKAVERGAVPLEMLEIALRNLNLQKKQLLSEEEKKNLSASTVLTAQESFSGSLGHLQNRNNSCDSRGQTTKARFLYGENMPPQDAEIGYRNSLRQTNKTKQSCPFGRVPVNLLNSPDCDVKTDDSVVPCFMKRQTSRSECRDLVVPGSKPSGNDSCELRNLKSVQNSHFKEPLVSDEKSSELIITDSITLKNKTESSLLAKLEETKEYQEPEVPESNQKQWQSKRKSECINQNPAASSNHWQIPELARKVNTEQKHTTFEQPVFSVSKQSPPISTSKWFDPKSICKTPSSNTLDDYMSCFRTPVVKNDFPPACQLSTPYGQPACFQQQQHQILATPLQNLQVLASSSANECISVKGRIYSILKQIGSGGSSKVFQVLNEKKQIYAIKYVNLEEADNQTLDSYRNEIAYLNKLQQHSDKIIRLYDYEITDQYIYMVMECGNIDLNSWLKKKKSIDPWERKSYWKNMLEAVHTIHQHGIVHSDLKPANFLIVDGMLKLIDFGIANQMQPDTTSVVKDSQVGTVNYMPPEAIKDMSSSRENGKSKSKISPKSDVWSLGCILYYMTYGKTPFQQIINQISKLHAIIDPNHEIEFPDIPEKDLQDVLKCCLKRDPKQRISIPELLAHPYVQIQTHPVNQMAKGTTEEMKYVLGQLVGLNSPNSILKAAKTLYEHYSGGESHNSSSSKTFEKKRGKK
The assay can be described thus: Mps-1 kinase assay (TR-FRET). The settings on record: N-terminally GST-tagged human full length recombinant Mps-1; 10 μM ATP; 1 μM peptide substrate; 60 min at 22° C. It counts as biochemical. In outline:
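GST-Mps-1 (full length, N-term tag) ~1 nM final, linear-range adjusted per lot; biotinylated peptide substrate. Detection: Eu-anti-pSer/Thr donor → SA-XLent acceptor TR-FRET, 1 h, 22° C. Inhibition of kinase activity.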
In the case of `Cc1cc(-c2cc(NCCC(F)(F)F)c3ncc(-c4ccc(C(=O)NC5CC5)c(C)c4)n3c2)ccc1C(=O)NC1CC1` [Example 32, 4,4′-{8-[(3,3,3-trifluoropropyl)amino]imidazo[1,2-a]pyridine-3,6-diyl}bis(N-cyclopropyl-2-methylbenzamide)], the concentration for half-maximal inhibition (IC50) was 0.9 nM.

With `Cc1cc(-c2cnc3c(NCCC(F)(F)F)cc(Oc4ccccc4)cn23)ccc1C(=O)NC1CC1` [Example 33, N-cyclopropyl-2-methyl-4-{6-phenoxy-8-[(3,3,3-trifluoropropyl)amino]imidazo[1,2-a]pyridin-3-yl}benzamide], the IC50 amounted to 0.7 nM.

For `CNC(=O)c1ccc(-c2cnc3c(NCCC(F)(F)F)cc(Oc4cccc(Cl)c4)cn23)cc1C` [Example 34, 4-{6-(3-chlorophenoxy)-8-[(3,3,3-trifluoropropyl)amino]imidazo[1,2-a]pyridin-3-yl}-N,2-dimethylbenzamide], the half-inhibitory concentration (IC50) is 6.2 nM.

Turning to `CCNC(=O)c1ccc(-c2cnc3c(NCCC(F)(F)F)cc(Oc4cccc(Cl)c4)cn23)cc1C` [Example 35, 4-{6-(3-chlorophenoxy)-8-[(3,3,3-trifluoropropyl)amino]imidazo[1,2-a]pyridin-3-yl}-N-ethyl-2-methylbenzamide], the IC50 was 6.3 nM.

On to `Cc1cc(-c2cnc3c(NCCC(F)(F)F)cc(Oc4cccc(Cl)c4)cn23)ccc1C(=O)NC1(C)CC1` [Example 36, 4-{6-(3-chlorophenoxy)-8-[(3,3,3-trifluoropropyl)amino]imidazo[1,2-a]pyridin-3-yl}-2-methyl-N-(1-methylcyclopropyl)benzamide], for which the IC50 turned out to be 11.1 nM.

For the molecule `Cc1cc(-c2cnc3c(NCCC(F)(F)F)cc(Oc4cccc(Cl)c4)cn23)ccc1C(=O)NC1(C#N)CC1` [Example 37, 4-{6-(3-chlorophenoxy)-8-[(3,3,3-trifluoropropyl)amino]imidazo[1,2-a]pyridin-3-yl}-N-(1-cyanocyclopropyl)-2-methylbenzamide], the IC50 was determined as 23 nM.

Consider `COc1ccc(Oc2cc(NCCC(F)(F)F)c3ncc(-c4ccc(C(=O)NC5CC5)c(C)c4)n3c2)cc1F` [Example 42, N-cyclopropyl-4-{6-(3-fluoro-4-methoxyphenoxy)-8-[(3,3,3-trifluoroprorwl)amino]imidazo[1,2-a]pyridin-3-yl}-2-methylbenzamide], for which the IC50 worked out at 0.4 nM.

As for `Cc1ccc(F)cc1Oc1cc(NCCC(F)(F)F)c2ncc(-c3ccc(C(=O)NC4CCC4)c(C)c3)n2c1` [Example 47, N-cyclobutyl-4-{6-(5-fluoro-2-methylphenoxy)-8-[(3,3,3-trifluoropropyl)amino]imidazo[1,2-a]pyridin-3-yl}-2-methylbenzamide], the IC50 is 7.6 nM.

As to `Cc1cc(-c2cnc3c(NCCC(F)(F)F)cc(Oc4cccc(F)c4)cn23)ccc1C(=O)NC1(C2CC2)CC1` [Example 49, N-[1,1′-bi(cyclopropyl)-1-0]-4-{6-(3-fluorophenoxy)-8-[(3,3,3-trifluoropropyl)amino]imidazo[1,2-a]pyridin-3-yl}-2-methylbenzamide], the IC50 stood at 97.6 nM.

As for `Cc1cc(-c2cnc3c(NCCC(F)(F)F)cc(Oc4cccc(F)c4)cn23)ccc1C(=O)NC1(CO)CC1` [Example 50, 4-{6-(3-Fluorophenoxy)-8-[(3,3,3-trifluoropropyl)amino]imidazo[1,2-a]pyridin-3-yl}-N-[1-(hydroxymethyl)cyclopropyl]-2-methylbenzamide], the half-inhibitory concentration (IC50) was 7.3 nM.

Take `COc1cccc(Oc2cc(NCCC(F)(F)F)c3ncc(-c4ccc(C(=O)NC5CC5)c(C)c4)n3c2)c1` [Example 52, N-cyclopropyl-4-{6-(3-methoxyphenoxy)-8-[(3,3,3-trifluoropropyl)amino]imidazo[1,2-a]pyridin-3-yl}-2-methylbenzamide]: the half-inhibitory concentration (IC50) worked out at 0.9 nM.

In the case of `COc1cccc(Oc2cc(NCCC(F)(F)F)c3ncc(-c4ccc(C(=O)NC5(C#N)CC5)c(C)c4)n3c2)c1` [Example 53, N-(1-cyanocyclopropyl)-4-{6-(3-methoxyphenoxy)-8-[(3,3,3-trifluoropropyl)amino]imidazo[1,2-a]pyridin-3-yl}-2-methylbenzamide], the IC50 stood at 19.5 nM.

On to `COc1cccc(Oc2cc(NCCC(F)(F)F)c3ncc(-c4ccc(C(=O)NC5(C)CC5)c(C)c4)n3c2)c1` [Example 54, 4-{6-(3-Methoxyphenoxy)-8-[(3,3,3-trifluoropropyl)amino]imidazo[1,2-a]pyridin-3-yl}-2-methyl-N-(1-methylcyclopropyl)benzamide], for which the IC50 turned out to be 16 nM.

Regarding `CNC(=O)c1ccc(-c2cnc3c(NCCC(F)(F)F)cc(Oc4cccc(OC)c4)cn23)cc1C` [Example 55, 4-{6-(3-Methoxyphenoxy)-8-[(3,3,3-trifluoropropyl)amino]imidazo[1,2-a]pyridin-3-yl}-N,2-dimethylbenzamide], the 50% inhibitory concentration (IC50) amounted to 2.9 nM.

For the molecule `CCNC(=O)c1ccc(-c2cnc3c(NCCC(F)(F)F)cc(Oc4cccc(OC)c4)cn23)cc1C` [Example 56, N-ethyl-4-{6-(3-methoxyphenoxy)-8-[(3,3,3-trifluoropropyl)amino]imidazo[1,2-a]pyridin-3-yl}-2-methylbenzamide], the concentration for half-maximal inhibition (IC50) was found to be 7.8 nM.

For the molecule `Cc1cc(-c2cnc3c(NCCC(F)(F)F)cc(Oc4ccccc4)cn23)ccc1C(=O)NC1(C#N)CC1` [Example 57, N-(1-cyanocyclopropyl)-2-methyl-4-{6-phenoxy-8-[(3,3,3-trifluoropropyl)amino]imidazo[1,2-a]pyridin-3-yl}benzamide], the half-maximal inhibitory concentration (IC50) amounted to 12.6 nM.

On to `Cc1cc(-c2cnc3c(NCCC(F)(F)F)cc(Oc4ccccc4)cn23)ccc1C(=O)NC1(C)CC1` [Example 58, 2-Methyl-N-(1-methylcyclopropyl)-4-{6-phenoxy-8-[(3,3,3-trifluoropropyl)amino]imidazo[1,2-a]pyridin-3-yl}benzamide], for which the IC50 was 5.7 nM.

Regarding `CNC(=O)c1ccc(-c2cnc3c(NCCC(F)(F)F)cc(Oc4ccccc4)cn23)cc1C` [Example 59, N,2-dimethyl-4-{6-phenoxy-8-[(3,3,3-trifluoropropyl)amino]imidazo[1,2-a]pyridin-3-yl}benzamide], the concentration for half-maximal inhibition (IC50) was found to be 1.5 nM.

In the case of `CCNC(=O)c1ccc(-c2cnc3c(NCCC(F)(F)F)cc(Oc4ccccc4)cn23)cc1C` [Example 60, N-ethyl-2-methyl-4-{6-phenoxy-8-[(3,3,3-trifluoropropyl)amino]imidazo[1,2-a]pyridin-3-yl}benzamide], the IC50 was determined as 2.3 nM.

Turning to `Cc1ccc(F)cc1Oc1cc(NCCC(F)(F)F)c2ncc(-c3ccc(C(=O)NC4(C5CC5)CC4)c(C)c3)n2c1` [Example 62, N-[1′,1′-bi(cyclopropyl)-1-yl]-4-{6-(5-fluoro-2-methylphenoxy)-8-[(3,3,3-trifluoropropyl)amino]imidazo[1,2-a]pyridin-3-yl}-2-methylbenzamide], the IC50 turned out to be 49.3 nM.

For the molecule `Cc1ccc(F)cc1Oc1cc(NCCC(F)(F)F)c2ncc(-c3ccc(C(=O)NC4(C#N)CCC4)c(C)c3)n2c1` [Example 63, N-(1-cyanocyclobutyl)-4-{6-(5-fluoro-2-methylphenoxy)-8-[(3,3,3-trifluoropropyl)amino]imidazor-1,2-aliwridin-3-yl}-2-methylbenzamide], the IC50 is 59.7 nM.

On to `Cc1cc(-c2cnc3c(NCCC(F)(F)F)cc(Oc4ccc(OC(F)(F)F)cc4)cn23)ccc1C(=O)NC1CC1` [Example 64, N-cyclopropyl-2-methyl-4-{6-[4-(trifluoromethoxy)phenoxy]-8-[(3,3,3-trifluoropropyl)amino]imidazo[1,2-a]pyridin-3-yl}benzamide], for which the IC50 came out at 8.6 nM.

In the case of `Cc1cc(-c2cnc3c(NCCC(F)(F)F)cc(Oc4ccc(OC(F)(F)F)cc4)cn23)ccc1C(=O)NC1(C#N)CC1` [Example 65, N-(1-cyanocyclopropyl)-2-methyl-4-{6-[4-(trifluoromethoxy)phenoxy]-8-[(3,3,3-trifluoropropyl)amino]imidazo[1,2-a]pyridin-3-yl}benzamide], the half-maximal inhibitory concentration (IC50) amounted to 131 nM.

Regarding `Cc1cc(-c2cnc3c(NCCC(F)(F)F)cc(Oc4ccc(OC(F)(F)F)cc4)cn23)ccc1C(=O)NC1(C)CC1` [Example 66, 2-Methyl-N-(1-methylcyclopropyl)-4-{6-[4-(trifluoromethoxy)phenoxy]-8-[(3,3,3-trifluoropropyl)amino]imidazo[1,2-a]pyridin-3-yl}benzamide], the IC50 was found to be 161 nM.

`CNC(=O)c1ccc(-c2cnc3c(NCCC(F)(F)F)cc(Oc4ccc(OC(F)(F)F)cc4)cn23)cc1C` [Example 67, N,2-dimethyl-4-{6-[4-(trifluoromethoxy)phenoxy]-8-[(3,3,3-trifluoropropyl)amino]imidazo[1,2-a]pyridin-3-yl}benzamide]: the IC50 worked out at 72.8 nM.
